In patent US8476265B2, “Compounds-801” (AstraZeneca AB, priority 2010, dated 2013):

What was measured:
[1] = molecular target: T1, human muscarinic acetylcholine M3 receptor (Homo sapiens, UniProt P20309); experiment: Muscarinic 3 receptor binding assay ([3H]NMS competition, SPA), single concentration 1 μM; conditions: 1 μM compound; % inhibition specific [3H]-NMS binding
T1 construct: expressed in transfected cells; host or cells: CHO-K1 (Chinese Hamster Ovary) cell membranes
Procedure, shortened: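 CHO-K1 membranes expressing human M3 on SPA beads, competition with 0.1 nM [3H]NMS (quarter Kd) in 20 mM HEPES pH 7.4, 5 mM MgCl2, 0.1% BSA, 1% DMSO; compound at 1 μM. 16 h at room temperature. Value is % inhibition of specific binding, non-specific defined with 1 μM atropine.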

Adrenergic β2 [2] = molecular target: T2, Adrenergic β2 (Homo sapiens, UniProt P07550); experiment: Adrenergic β2 mediated cAMP production in H292 cells, single concentration 1 μM; format: cell-based; conditions: NCI-H292, 1 μM compound, cAMP as percentage of the maximum response generated by 1E-07M formoterol, read-out: β2 % effect @1 uM
T2 construct: Adherent H292 cells are removed from tissue culture flasks by treatment with Accutase™ cell detachment solution; endogenous in cells; host or cells: H292 cells
T2 sequence (P07550 whole entry): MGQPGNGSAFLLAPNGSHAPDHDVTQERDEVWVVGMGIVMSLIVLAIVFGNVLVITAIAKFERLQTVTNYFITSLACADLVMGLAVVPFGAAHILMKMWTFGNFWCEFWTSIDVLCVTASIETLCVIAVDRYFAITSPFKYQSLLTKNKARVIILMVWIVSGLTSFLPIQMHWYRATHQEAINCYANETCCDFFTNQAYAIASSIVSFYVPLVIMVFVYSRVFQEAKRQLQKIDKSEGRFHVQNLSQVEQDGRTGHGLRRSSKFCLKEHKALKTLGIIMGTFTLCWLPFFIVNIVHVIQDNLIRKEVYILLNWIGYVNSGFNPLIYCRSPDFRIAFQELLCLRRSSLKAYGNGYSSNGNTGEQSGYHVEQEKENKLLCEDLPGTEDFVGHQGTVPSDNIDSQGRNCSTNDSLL
Procedure, shortened: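 H292 cells pretreated with rolipram (300 μM final) 10 min, then compound at 1 μM final, 1% DMSO, 60 min at room temperature in HBSS/10 mM HEPES pH 7.4/5 mM glucose. Lysate cAMP quantified by AlphaScreen against a standard curve, as % of maximal response to 1E-07M formoterol.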

Adrenergic β2 [3] = molecular target: T2, Adrenergic β2; experiment: Adrenergic β2 mediated cAMP production in H292 cells (AlphaScreen), concentration response; format: cell-based; conditions: for EC50: 60 min, 300 μM rolipram, read-out: β2 pEC50 (converted); for β2 Intrinsic Activity: fraction relative to the maximum activity determined for formoterol
Procedure, shortened: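 H292 cells seeded overnight, pretreated 10 min with rolipram (300 μM final), then exposed to compounds 60 min at room temperature in HBSS/10 mM HEPES pH 7.4/5 mM glucose, 1% DMSO. Lysate cAMP quantified by AlphaScreen against a standard curve; four-parameter fit gives pEC50 and intrinsic activity relative to formoterol maximum.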

[4] = molecular target: T1, human muscarinic acetylcholine M3 receptor; experiment: Muscarinic 3 receptor binding assay ([3H]NMS competition, SPA), pIC50; conditions: [3H]NMS 0.1 nM, CHO-K1 cell membranes expressing human M3 receptor
Procedure, shortened: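 Competition of [3H]NMS (0.1 nM, quarter Kd) binding to CHO-K1 membranes expressing human M3, SPA format, in 20 mM HEPES pH 7.4, 5 mM MgCl2, 0.1% BSA, 1% DMSO. Incubated 16 h at room temperature; non-specific binding with 1 μM atropine; pIC50 from specific binding.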

T1 sequence (P20309 whole entry): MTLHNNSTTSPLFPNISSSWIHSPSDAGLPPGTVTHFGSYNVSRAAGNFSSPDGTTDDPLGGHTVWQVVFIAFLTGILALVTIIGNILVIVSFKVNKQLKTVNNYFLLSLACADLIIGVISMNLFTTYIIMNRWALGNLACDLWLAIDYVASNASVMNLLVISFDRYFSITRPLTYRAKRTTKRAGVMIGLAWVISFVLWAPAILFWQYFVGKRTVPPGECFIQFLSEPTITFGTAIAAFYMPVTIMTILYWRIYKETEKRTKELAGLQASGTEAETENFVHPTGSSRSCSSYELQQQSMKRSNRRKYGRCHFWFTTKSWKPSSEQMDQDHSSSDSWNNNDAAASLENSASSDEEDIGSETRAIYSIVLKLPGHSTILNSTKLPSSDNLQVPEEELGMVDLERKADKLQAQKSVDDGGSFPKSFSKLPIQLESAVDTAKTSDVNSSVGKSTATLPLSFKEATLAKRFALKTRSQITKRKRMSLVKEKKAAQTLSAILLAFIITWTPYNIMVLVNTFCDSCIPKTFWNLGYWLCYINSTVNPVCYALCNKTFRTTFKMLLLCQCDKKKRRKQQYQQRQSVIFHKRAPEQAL

| Compound | inhibition at 1 µM [1] | percent of formoterol maximum response at 1 µM (Adrenergic β2 [2]) | EC50 (Adrenergic β2 [3]) | β2 Intrinsic Activity (Adrenergic β2 [3]) | IC50 [4] |
| --- | --- | --- | --- | --- | --- |
| O=C1COc2c(CCNCCN(C(=O)CCOCCc3cccc(CN4CCC5(CC4)CN(C(=O)c4ccc6cccnc6n4)CCO5)c3)C3CCCCC3)ccc(O)c2N1 [Example 161, 3-(3-((4-(1,8-Naphthyridine-2-carbonyl)-1-oxa-4,9-diazaspiro[5.5]undecan-9-yl)methyl)phenethoxy)-N-cyclohexyl-N-(2-(2-(5-hydroxy-3-oxo-3,4-dihydro-2H-benzo[b][1,4]oxazin-8-yl)ethylamino)ethyl)propanamide] | 100% | 97% | 39.8 nM | 1.0 | 0.501 nM |
| CC(C)c1cc(C(=O)N2CCOC3(CCN(Cc4cccc(CCOCCC(=O)N(CCNCCc5ccc(O)c6c5OCC(=O)N6)C5CCCCC5)c4)CC3)C2)no1 [Example 147, N-Cyclohexyl-N-(2-(2-(5-hydroxy-3-oxo-3,4-dihydro-2H-benzo[b][1,4]oxazin-8-yl)ethylamino)ethyl)-3-(3-((4-(5-isopropylisoxazole-3-carbonyl)-1-oxa-4,9-diazaspiro[5.5]undecan-9-yl)methyl)phenethoxy)propanamide] | 99% | 107% | 158 nM | 1.0 | 1.58 nM |
| Cc1ccoc1C(=O)N1CCOC2(CCN(Cc3cccc(CCOCCC(=O)N(CCNCCc4ccc(O)c5c4OCC(=O)N5)C4CCCCC4)c3)CC2)C1 [Example 159, N-Cyclohexyl-N-(2-(2-(5-hydroxy-3-oxo-3,4-dihydro-2H-benzo[b][1,4]oxazin-8-yl)ethylamino)ethyl)-3-(3-((4-(3-methylfuran-2-carbonyl)-1-oxa-4,9-diazaspiro[5.5]undecan-9-yl)methyl)phenethoxy)propanamide] | 100% | 87% | 79.4 nM | 0.9 | 1.26 nM |
| O=C1COc2c(CCNCCN(C(=O)CCOCCc3cccc(CN4CCC5(CC4)CN(C(=O)c4cccc(Cl)c4)CCO5)c3)C3CCCCC3)ccc(O)c2N1 [Example 164, 3-(3-((4-(3-Chlorobenzoyl)-1-oxa-4,9-diazaspiro[5.5]undecan-9-yl)methyl)phenethoxy)-N-cyclohexyl-N-(2-(2-(5-hydroxy-3-oxo-3,4-dihydro-2H-benzo[b][1,4]oxazin-8-yl)ethylamino)ethyl)propanamide] | 99% | 96% | 79.4 nM | 0.8 | 2.51 nM |
| O=C1COc2c(CCNCCN(C(=O)CCOCCc3cccc(CN4CCC5(CC4)CN(C(=O)Cc4ccc6c(c4)OCO6)CCO5)c3)C3CCCCC3)ccc(O)c2N1 [Example 140, 3-(3-((4-(2-(Benzo[d][1,3]dioxol-5-yl)acetyl)-1-oxa-4,9-diazaspiro[5.5]undecan-9-yl)methyl)phenethoxy)-N-cyclohexyl-N-(2-(2-(5-hydroxy-3-oxo-3,4-dihydro-2H-benzo[b][1,4]oxazin-8-yl)ethylamino)ethyl)propanamide] | 100% | 100% | 200 nM | 1.0 | 1 nM |
| O=C1COc2c(CCNCCN(C(=O)CCOCCc3cccc(CN4CCC5(CC4)CN(C(=O)c4ccc6c(c4)OCO6)CCO5)c3)C3CCCCC3)ccc(O)c2N1 [Example 157, 3-(3-((4-(Benzo[d][1,3]dioxole-5-carbonyl)-1-oxa-4,9-diazaspiro[5.5]undecan-9-yl)methyl)phenethoxy)-N-cyclohexyl-N-(2-(2-(5-hydroxy-3-oxo-3,4-dihydro-2H-benzo[b][1,4]oxazin-8-yl)ethylamino)ethyl)propanamide] | 101% | 97% | 63.1 nM | 0.8 | 1.58 nM |
| O=C1COc2c(CCNCCN(C(=O)CCOCCc3cccc(CN4CCC5(CC4)CN(C(=O)c4ccc(Cl)s4)CCO5)c3)C3CCCCC3)ccc(O)c2N1 [Example 106, 3-(3-((4-(5-Chlorothiophene-2-carbonyl)-1-oxa-4,9-diazaspiro[5.5]undecan-9-yl)methyl)phenethoxy)-N-cyclohexyl-N-(2-(2-(5-hydroxy-3-oxo-3,4-dihydro-2H-benzo[b][1,4]oxazin-8-yl)ethylamino)ethyl)propanamide] | 100% | 102% | 50.1 nM | 1.0 | 0.631 nM |
| O=C1COc2c(CCNCCN(C(=O)CCOCCc3cccc(CN4CCC5(CC4)CN(C(=O)CCOc4ccccc4)CCO5)c3)C3CCCCC3)ccc(O)c2N1 [Example 165, N-Cyclohexyl-N-(2-(2-(5-hydroxy-3-oxo-3,4-dihydro-2H-benzo[b][1,4]oxazin-8-yl)ethylamino)ethyl)-3-(3-((4-(3-phenoxypropanoyl)-1-oxa-4,9-diazaspiro[5.5]undecan-9-yl)methyl)phenethoxy)propanamide] | 100% | 99% | 79.4 nM | 1.1 | 1 nM |
| O=C1COc2c(CCNCCN(C(=O)CCOCCc3cccc(CN4CCC5(CC4)CN(C(=O)c4cc6ccccn6n4)CCO5)c3)C3CCCCC3)ccc(O)c2N1 [Example 146, N-Cyclohexyl-N-(2-(2-(5-hydroxy-3-oxo-3,4-dihydro-2H-benzo[b][1,4]oxazin-8-yl)ethylamino)ethyl)-3-(3-((4-(pyrazolo[1,5-a]pyridine-2-carbonyl)-1-oxa-4,9-diazaspiro[5.5]undecan-9-yl)methyl)phenethoxy)propanamide] | 100% | 96% | 79.4 nM | 0.9 | 0.398 nM |
| CCc1cc(C(=O)N2CCOC3(CCN(Cc4cccc(CCOCCC(=O)N(CCNCCc5ccc(O)c6c5OCC(=O)N6)C5CCCCC5)c4)CC3)C2)cs1 [Example 144, N-Cyclohexyl-3-(3-((4-(5-ethylthiophene-3-carbonyl)-1-oxa-4,9-diazaspiro[5.5]undecan-9-yl)methyl)phenethoxy)-N-(2-(2-(5-hydroxy-3-oxo-3,4-dihydro-2H-benzo[b][1,4]oxazin-8-yl)ethylamino)ethyl)propanamide] | 100% | 100% | 39.8 nM | 1.0 | 0.158 nM |
| O=C1COc2c(CCNCCN(C(=O)CCOCCc3cccc(CN4CCC5(CC4)CN(C(=O)C4COc6ccccc6O4)CCO5)c3)C3CCCCC3)ccc(O)c2N1 (stereo not shown) [Example 115, N-Cyclohexyl-3-(3-((4-(2,3-dihydrobenzo[b][1,4]dioxine-2-carbonyl)-1-oxa-4,9-diazaspiro[5.5]undecan-9-yl)methyl)phenethoxy)-N-(2-(2-(5-hydroxy-3-oxo-3,4-dihydro-2H-benzo[b][1,4]oxazin-8-yl)ethylamino)ethyl)propanamide] | 100% | 93% | 126 nM | 0.6 | 0.158 nM |
